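Five concentrations, 48 hours, 96-well plates. GI50 is the concentration that inhibits growth by half.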 Calls of active or inactive are those of the source. Cut-off read from the data, not from the text of the source: active = GI50 up to about 1.1 µM and inactive = higher.
Key:
Assay in all cases: NCI anticancer screen, dose series, 48 h
KM12 = system: KM12
A549 = system: A549
SK-MEL-5 = system: SK-MEL-5
K562 = system: K562
MOLT-4 = system: MOLT-4
IGROV-1 = system: IGROV-1
MCF7 = system: MCF7
786-0 = system: 786-0
SK-MEL-2 = system: SK-MEL-2
ACHN = system: ACHN
SNB-75 = system: SNB-75
NCI-H23 = system: NCI-H23
Malme-3M = system: Malme-3M
CCRF-CEM = system: CCRF-CEM
T47D = system: T47D
NCI/ADR-RES = system: NCI/ADR-RES
BT-549 = system: BT-549
COLO 205 = system: COLO 205
HCC 2998 = system: HCC 2998

Structure (SMILES) | GI50 (KM12) | GI50 (A549) | GI50 (SK-MEL-5) | GI50 (K562) | GI50 (MOLT-4) | GI50 (IGROV-1) | GI50 (MCF7) | GI50 (786-0) | GI50 (SK-MEL-2) | GI50 (ACHN) | GI50 (SNB-75) | GI50 (NCI-H23) | GI50 (Malme-3M) | GI50 (CCRF-CEM) | GI50 (T47D) | GI50 (NCI/ADR-RES) | GI50 (BT-549) | GI50 (COLO 205) | GI50 (HCC 2998)
CC[N+]1(C)CCC(O)(/C=C/c2ccc(Cl)cc2)C(C(=O)/C=C/c2ccc(Cl)cc2)C1 (stereo unspecified) | 2.9 µM (inactive) | 13.9 µM (inactive) | 10.5 µM (inactive) | 2.37 µM (inactive) | 2.5 µM (inactive) | 4.7 µM (inactive) | 3.92 µM (inactive) | 3.01 µM (inactive) | 15.8 µM (inactive) | 3.6 µM (inactive) | 11.3 µM (inactive) | 9.89 µM (inactive) | 6.62 µM (inactive) | 1.08 µM (active) | 4.86 µM (inactive) | 9.64 µM (inactive) | 13.8 µM (inactive) | 3.55 µM (inactive) | 17.5 µM (inactive)
COC(=O)C1=C(OC(=O)c2ccccc2)C(C(=O)OC)[C@@]2(O)[C@@H](C(=O)OC)[C@H](C)C[C@@H]1[C@@H]2C(=O)OC (stereo partly specified) | 28.4 µM (inactive) | 19.5 µM (inactive) | 31.9 µM (inactive) |  | 46.1 µM (inactive) | 33.8 µM (inactive) | 29 µM (inactive) | 38.1 µM (inactive) | 58.2 µM (inactive) | 31.6 µM (inactive) | 22.9 µM (inactive) | 30.8 µM (inactive) | 26.9 µM (inactive) | 8.89 µM (inactive) | 28 µM (inactive) | 19 µM (inactive) | 23.7 µM (inactive) | 17.6 µM (inactive) | 25 µM (inactive)
O=C(NCCNCCO)N/N=C/c1ccc([N+](=O)[O-])cc1 | > 100 µM (inactive) | > 100 µM (inactive) | > 100 µM (inactive) | > 100 µM (inactive) | > 100 µM (inactive) | > 100 µM (inactive) | 48.9 µM (inactive) | > 100 µM (inactive) | 49.8 µM (inactive) | > 100 µM (inactive) | 21.7 µM (inactive) | > 100 µM (inactive) | 43.8 µM (inactive) | > 100 µM (inactive) | > 100 µM (inactive) | > 100 µM (inactive) | > 100 µM (inactive) | > 100 µM (inactive) | > 100 µM (inactive)
O=C(/C=C/c1ccc2ccccc2c1)NCc1ccc(C(=O)NCc2ccccc2)cc1 | > 100 µM (inactive) | 65.5 µM (inactive) | 98.9 µM (inactive) | > 31.6 µM (inactive) | > 66.7 µM (inactive) | > 70 µM (inactive) | > 83.6 µM (inactive) | 67.9 µM (inactive) | > 100 µM (inactive) | > 68.7 µM (inactive) | 19.6 µM (inactive) | > 83.4 µM (inactive) | > 35.8 µM (inactive) | > 93.3 µM (inactive) | > 36.3 µM (inactive) | > 100 µM (inactive) | 32.9 µM (inactive) | > 100 µM (inactive) | > 37.2 µM (inactive)
N=C(NCc1ccccc1)N/N=C\c1ccnc2ccccc12 | 15.9 µM (inactive) | 15 µM (inactive) | 6.52 µM (inactive) | 4.31 µM (inactive) | 12.6 µM (inactive) |  | 11.7 µM (inactive) | 13.7 µM (inactive) | 9.73 µM (inactive) | 15.3 µM (inactive) | 8.04 µM (inactive) | 15.7 µM (inactive) | 10.2 µM (inactive) | 1.87 µM (inactive) | 1.41 µM (inactive) | 15.8 µM (inactive) | 4.56 µM (inactive) | 1.71 µM (inactive) | 2.1 µM (inactive)
O=Cc1ccc(-c2cc(C=O)c(-c3cccs3)[nH]2)s1 | 25.8 µM (inactive) | 24.8 µM (inactive) | 23 µM (inactive) | 25.9 µM (inactive) | 20.2 µM (inactive) | 15.7 µM (inactive) | 19.4 µM (inactive) | 48.4 µM (inactive) | 46.2 µM (inactive) | 41.4 µM (inactive) | 17.1 µM (inactive) | 37 µM (inactive) | 46.7 µM (inactive) | 20 µM (inactive) | 8.85 µM (inactive) | 26.7 µM (inactive) | 28.2 µM (inactive) | 25.1 µM (inactive) | 16.6 µM (inactive)
O=C1NC(N2CCCC(CO)C2)=N/C1=C\c1ccccc1 (stereo unspecified) | > 100 µM (inactive) | > 100 µM (inactive) | > 100 µM (inactive) |  | > 100 µM (inactive) | > 100 µM (inactive) | > 100 µM (inactive) | > 100 µM (inactive) | > 100 µM (inactive) | > 100 µM (inactive) | > 100 µM (inactive) | > 100 µM (inactive) | > 100 µM (inactive) | > 100 µM (inactive) | > 100 µM (inactive) | > 100 µM (inactive) | > 100 µM (inactive) | > 100 µM (inactive) | > 100 µM (inactive)
CCOC(=O)C(C)NC(=O)C(C)NC(=O)C(C)NC(=O)C(C)NC(=O)C(C)NC(=O)OCc1ccccc1 (stereo unspecified) | > 100 µM (inactive) | > 100 µM (inactive) | > 100 µM (inactive) | > 100 µM (inactive) | > 100 µM (inactive) | > 100 µM (inactive) | > 100 µM (inactive) | > 100 µM (inactive) | > 100 µM (inactive) | > 100 µM (inactive) | 78.3 µM (inactive) | > 100 µM (inactive) | > 100 µM (inactive) | > 100 µM (inactive) | > 100 µM (inactive) | > 100 µM (inactive) | > 100 µM (inactive) | > 100 µM (inactive) | > 100 µM (inactive)
Oc1nc(-c2cccc(F)c2)nc2ccccc12 | > 79.6 µM (inactive) | 51.6 µM (inactive) | > 67.1 µM (inactive) | 0.461 µM (active) | > 100 µM (inactive) | 57.1 µM (inactive) | 87.1 µM (inactive) | 38.6 µM (inactive) | 41 µM (inactive) | 31.1 µM (inactive) | 16.6 µM (inactive) | 32.5 µM (inactive) | 45.8 µM (inactive) | > 21.3 µM (inactive) | > 100 µM (inactive) | 45.5 µM (inactive) | > 46.9 µM (inactive) | > 100 µM (inactive) | 35.1 µM (inactive)
COc1cc(/C=C2/C(=O)N(C(=O)c3ccccc3O)N=C2C)cc(OC)c1OC | 0.455 µM (active) | 0.439 µM (active) | 2.88 µM (inactive) | 0.393 µM (active) | 0.887 µM (active) | 0.69 µM (active) | 0.753 µM (active) | 2.25 µM (inactive) | 1.44 µM (inactive) | 0.92 µM (active) | 1.84 µM (inactive) | 0.653 µM (active) | 8.17 µM (inactive) | 1.77 µM (inactive) | 1.12 µM (active) | 4.29 µM (inactive) | 0.741 µM (active) | 34.4 µM (inactive) | 11.6 µM (inactive)
NC(=O)C[C@H](NC(=O)C1(NC(=O)[C@H](Cc2ccc(CP(=O)(O)O)cc2)NC(=O)C(=O)O)CCCCC1)C(=O)NCCCc1cccc2ccccc12 | > 10 µM (inactive) | > 10 µM (inactive) | > 10 µM (inactive) | > 10 µM (inactive) | > 10 µM (inactive) | > 10 µM (inactive) | > 10 µM (inactive) | > 10 µM (inactive) | > 10 µM (inactive) | > 10 µM (inactive) | > 10 µM (inactive) | > 10 µM (inactive) | > 10 µM (inactive) | 8.28 µM (inactive) | > 10 µM (inactive) | > 10 µM (inactive) | > 10 µM (inactive) | > 10 µM (inactive) | > 10 µM (inactive)

From ChEMBL document CHEMBL1201862, “PubChem BioAssay data set” (2004)
